Laboratory results reported in US6645976B1 (Eli Lilly and Company, priority 1994, dated 2003).
Structures can show the parent of a compound that is named as a salt.

Tests used:
[1] = target: T1, recombinant human secreted phospholipase A2 (Homo sapiens, UniProt P14555); test: sPLA2 Chromogenic Assay (Assay 1); assay type: biochemical; conditions: diheptanoyl thio-PC substrate, pH 7.5, 40° C. for 30 minutes, absorbance at 405 nanometers
T1 sequence (P14555 21-144): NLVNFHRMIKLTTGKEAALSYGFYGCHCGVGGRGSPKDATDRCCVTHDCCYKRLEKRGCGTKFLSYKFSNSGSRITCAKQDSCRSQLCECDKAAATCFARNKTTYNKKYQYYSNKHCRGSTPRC
Description: The following chromogenic assay procedure was used to identify and evaluate inhibitors of recombinant human secreted phospholipase A2. The assay described herein has been adapted for high volume screening using 96 well microtiter plates.
A measured volume of racemic dipheptanoyl thio PC supplied in chloroform at a concentration of 100 mg/ml is taken to dryness and redissolved in 10 millimolar TRITON X-100™ nonionic detergent aqueous solution. Reaction Buffer is added to the solution, then DTNB to give the Reaction Mixture.
The reaction mixture thus obtained contains 1 mM diheptanoyl thio-PC substrate, 0.29 mm Triton X-100™ detergent, and 0.12 mm DTMB in a buffered aqueous solution at pH 7.5.
1. Add 0.2 ml reaction mixture to all wells;
2. Add 10 ul test compound (or solvent blank) to appropriate wells, mix 20 seconds;
3. Add 50 nanograms of sPLA2 (10 microliters) to appropriate wells;
4. Incubate plate at 40° C. for 30 minutes;
All compounds were tested in triplicate. […] Each sample was titrated in triplicate and result values were averaged for plotting and calculation of IC50 values.

| Structure (SMILES) | IC50 [1] | melting point |
| --- | --- | --- |
| CCc1c(CC(N)=O)c2c(OCC(=O)OCc3ccccc3)cccn2c1Cc1cccc(Cl)c1 [Compound 21y, 2-(8-(Benzyloxycarbonylmethyloxy)-3-(m-chlorobenzyl)-2-ethylindolizin-1-yl)acetamide] | 350 nM | 157 to 158 °C |
| CCCC(CCC)Cc1c(CC)c(C(=O)C(N)=O)c2c(OCC(=O)O)cccn12 [Compound 52f, 2-(8-Carboxymethyloxy-2-ethyl-3-(2-propylpentyl)indolizin-1-yl)glyoxylamide] | 17 nM | 176 to 177 °C |
| CCc1c(C(=O)C(N)=O)c2c(OCc3ccccc3)cccn2c1Cc1cccs1 [Compound 49k, 2-(8-Benzyloxy-2-ethyl-3-(thiophen-2-ylmethyl)indolizin-1-yl)glyoxylamide] | 790 nM | 191 to 192 °C |
| CCc1c(C(=O)C(N)=O)c2c(OCC(=O)OC(C)OC(=O)OC3CCCC3)cccn2c1Cc1ccccc1-c1ccccc1 (stereo not shown) [Compound 59g, 2-(3-Biphenyl-2-ylmethyl-8-(1-cyclopentyloxycarbonyloxyethyloxycarbonylmethyloxy)-2-ethylindolizin-1-yl)glyoxylamide] | 39 nM | 74 to 80 °C |
| CCOC(=O)COc1cccn2c(Cc3ccccc3)c(CC)c(C(=O)C(N)=O)c12 [Compound 37a, (3-Benzyl-8-(carbethoxymethyloxy)-2-ethylindolizin-1-yl)glyoxylamide] | 44 nM | 191 to 192 °C |
| CCc1c(C(=O)C(N)=O)c2c(OCc3nnn[nH]3)cccn2c1Cc1ccccc1-c1ccccc1 [Compound 59m, 2-(3-(Biphenyl-2-yl-methyl)-2-ethyl-8-(1H-tetracol-5-ylmethyloxy)indolizine-1-yl)glyoxylamide] | 7 nM | 206 to 209 °C (dec.) |
| CCc1c(C(=O)C(N)=O)c2c(OCC(=O)O)cccn2c1CC=Cc1ccccc1 [Compound 58h, 2-(8-Carboxymethyloxy-2-ethyl-^3-(3-phenyl-2-propenyl)indlolin-1-yl)glyoxylamide] | 38 nM | 222 to 224 °C |
| CCCCc1ccc(Cc2c(CC)c(C(=O)C(N)=O)c3c(OCC(=O)OC)cccn23)cc1 [Compound 51s, 2-(3-(p-n-Butylbenzyl)-8-(carbomethoxymethyloxy)-2-ethylindolizin-1-yl)glyoxylamide] | 150 nM | 174 to 176 °C |
| CCc1c(C(=O)C(N)=O)c2c(OCC(=O)OC)cccn2c1Cc1sccc1-c1cccs1 [Compound 51l, 2-(8-(Carbomethoxymethyloxy)-2-ethyl-3-((3-thiophen-2-yl)thiophen-2-ylmethyl)indolizin-1-yl)glyoxylamide] | 96 nM | 176 to 177 °C |
| CCc1c(C(=O)C(N)=O)c2c(OCC(=O)OCC(=O)OC(C)(C)C)cccn2c1Cc1ccccc1-c1ccccc1 [Compound 59d] | 83 nM | 102 to 104 °C |
| COC(=O)COc1cccn2c(Cc3ccccc3-c3ccccc3)c(C3CC3)c(C(=O)C(N)=O)c12 [Compound 39k, (8-(Carbmethoxymethyloxy)-2-cyclopropyl-3-(o-phenylbenzyl)indolizin-1-yl)glyoxylamide] |  | 178 to 179 °C |
| Cc1c(C(=O)C(N)=O)c2c(OCc3ccncc3)cccn2c1Cc1ccccc1-c1ccccc1 [Compound 59o, 2-(3-Biphenyl-2-ylmethyl-2-methyl-8-(pyridin-4-ylmethoxy)-indolizin-1-yl)-glyoxylamide] | 490 nM | 195 to 197 °C |
| CCc1c(C(=O)C(N)=O)c2c(OCC(=O)OC)cccn2c1CC1CCCCC1 [Compound 51b, 2-(8-(Carbomethoxymethyloxy)-3-cyclohexylmethyl-2-ethylindolizin-1-yl)glyoxylamide] | 310 nM | 149 to 150 °C |
| CCc1c(C(=O)C(N)=O)c2c(OCC(=O)OC)cccn2c1Cc1ccc2ccccc2c1 [Compound 51g, 2-(8-(Carbomethoxymethyloxy)-2-ethyl-3-(naphth-2-ylmethyl)indolizin-1-yl)glyoxylamide] | 170 nM | 195 to 196 °C |
| Cc1c(C(=O)C(N)=O)c2c(OCc3ccccc3)cccn2c1Cc1ccccc1 [Compound 35g, (3-Benzyl-8-benzyloxy-2-methylindolizin-1-yl)glyoxylamide] | 47 nM | 212 to 214 °C |
| COC(=O)CNc1cccn2c(CC3CCCCC3)c(C)c(C(=O)C(N)=O)c12 [Compound 89b, 2-(8-methoxycarbonylmethylamino-3-cyclohexylmethyl-2-methyl-indolizin-1-yl)-glyoxylamide] |  | 173 to 177 °C |
| CCCCc1ccc(Cc2c(CC)c(C(=O)C(N)=O)c3c(OC)cccn23)cc1 [Compound 49s, 2-(3-(p-n-Butylbenzyl)-2-ethyl-8-methoxyindolizin-1-yl)glyoxylamide] | 360 nM | 195 to 196 °C |
| CCc1c(C(=O)C(N)=O)c2c(OCC(=O)OC)cccn2c1Cc1cccc(OC)c1 [Compound 51m, 2-(2-Ethyl-8-(carbomethoxymethyloxy)-3-(m-methoxybenzyl)indolizine-1-yl)glyoxylamide] | 310 nM | 155 to 157 °C |
| CCc1c(C(=O)C(N)=O)c2c(OCC(=O)O)cccn2c1CCCc1ccccc1 [Compound 58i, 2-(8-Carboxymethyloxy-2-ethyl-3-(3-phenyl-2-propanyl)indlolin-1-yl)glyoxylamide] | 51 nM | 215 to 217 °C |

| Structure (SMILES) | IC50 [1] | melting point |
| --- | --- | --- |
| NC(=O)C(=O)c1c(C2CC2)c(Cc2ccccc2-c2ccccc2)n2ccc(OCCCC(=O)O)cc12 [Compound 67b, 2-(7-(3-Carboxypropyloxy)-2-cyclopropyl-3-(o-phenylbenzyl)indolizin-1-yl)glyoxylamide] |  | 112 to 121 °C (dec.) |
| NC(=O)C(=O)c1c(C2CCCC2)c(Cc2ccccc2-c2ccccc2)n2cccc(OCC(=O)O)c12 [Compound 58f, 2-(8-Carboxymethyloxy-2-cyclopentyl-3-(o-phenylbenzyl)indlolin-1-yl)glyoxylamide] | 280 nM | 147 to 148 °C |
| CC(C)(C)c1c(C(=O)C(N)=O)c2c(OCC(=O)O)cccn2c1Cc1ccccc1-c1ccccc1 [Compound 58e, 2-(2-t-Butyl-8-carboxymethoxyl-3-(o-phenylbenzyl)indlolin-1-yl)glyoxylamide] | 100 nM | 221 to 222 °C |
| CCOC(=O)COc1ccn2c(Cc3ccccc3-c3ccccc3)c(CC)c(C(=O)C(N)=O)c2c1 [Compound 68b, 2-(7-(Carboethoxymethyloxy)-2-ethyl-3-(o-phenylbenzyl)indolizin-1-yl)glyoxylamide] |  | 119 to 121 °C |
| CCc1c(CC(N)=O)c2c(OCC(=O)O)cccn2c1-c1cccc2ccccc12 [Compound 22w, 2-(8-(Carboxymethyloxy)-2-ethyl-3-(1-naphthyl)indolizin-1-yl)acetamide] |  | 129 to 133 °C |
| COC(=O)COc1cccn2c(CC3CCCCC3)c(C)c(C(=O)C(N)=O)c12 [Compound 51t] | 130 nM | 177 to 178 °C |
| NC(=O)C(=O)c1c(C2CC2)c(CC2CCCCC2)n2cccc(OCC(=O)O)c12 [Compound 58k, 2-(8-carboxymethoxyl-3-cyclohexylmethyl-2-cyclopropylindolizin-1-yl)glyoxylamide] | 43 nM | 229 to 234 °C |
| CCCCCC1CCC(Cc2c(CC)c(C(=O)C(N)=O)c3c(OCC(=O)O)cccn23)CC1 (stereo not shown) (as salt: Na) [Compound 52o, 2-(8-(Carboxymethyloxy)-2-ethyl-3-(4-n-pentylcyclohexylmethyl)indolizin-1-yl)glyoxylamide] |  | 224 to 225 °C |
| CCc1c(CC(N)=O)c2cc(OCCCC(=O)O)ccn2c1Cc1ccccc1-c1ccccc1 [Compound 71b, 2-(7-(3-Carboxypropyloxy)-2-ethyl-3-(o-phenylbenzyl)indolizin-1-yl)acetamide] |  | 105 to 120 °C (dec.) |
| CCc1c(C(=O)C(N)=O)c2c(OCC(=O)OC)cccn2c1-c1cccs1 [Compound 51k] |  | 182 °C |
| COC(=O)COc1cccn2c(Cc3ccccc3)c(C3CC3)c(C(=O)C(N)=O)c12 [Compound 51r, 2-(3-Benzyl-8-carbomethoxymethyloxy-2-cyclopropylindolizin-1-yl)-glyoxylamide] |  | 186 to 188 °C |
| COC(=O)CNc1cccn2c(Cc3ccccc3)c(C)c(C(=O)C(N)=O)c12 [Compound 89a, 2-(3-Benzyl-8-methoxycarbonylmethylamino-2-methyl-indolizin-1-yl)-glyoxylamide] |  | 293 °C (dec.) |
| Cc1c(C(=O)C(N)=O)c2c(NCC(=O)O)cccn2c1CC1CCCCC1 [Compound 90b, 2-(8-Carboxymethylamino-3-cyclohexylmethyl-2-methyl-indolizin-1-yl)-glyoxylamide] |  | > 300 °C |
| CCc1c(C(=O)C(N)=O)c2cc(OCCCCCC(=O)O)ccn2c1Cc1ccccc1-c1ccccc1 |  | 84 to 94 °C (dec.) |
| CCc1c(CC(N)=O)c2c(OCC(=O)OC)cccn2c1Cc1ccccc1 [Compound 21v, Methyl (3-Benzyl-1-carbamoylmethyl-2-ethylindolizin-8-yloxy)acetate] |  | 159 to 163 °C |
| COC(=O)COc1cccn2c(CC34CC5CC(CC(C5)C3)C4)c(C)c(C(=O)C(N)=O)c12 [Compound 51p, 2-(3-(Adamant-1-ylmethyl)-8-(carbomethoxymethyloxy)-2-methylindolizin-1-yl)glyoxylamide] |  | 191 to 192 °C |
| CCc1c(C(=O)C(N)=O)c2c(OCC(=O)OC)cccn2c1Cc1cccc(C(F)(F)F)c1 [Compound 39i, (8-(Carbmethoxymethyloxy)-2-ethyl-3-(m-trifluoromethylbenzyl)indolizin-1-yl)glyoxylamide] |  | 136 to 137 °C |
| CCOC(=O)COc1cccn2c(Cc3cccc(Cl)c3)c(CC)c(C(=O)C(N)=O)c12 [Compound 37h, (8-(Carbethoxymethyloxy)-3-(m-chlorobenzyl)-2-ethylindolizin-1-yl)glyoxylamide] |  | 172 to 175 °C |
